The text below walks through data of patent US7880007B2, “Bicyclic substituted phenyl piperidine modulators of muscarinic receptors” (Vertex Pharmaceuticals Incorporated, priority 2004, dated 2011).

What is called Emax is the maximal effect, on the per cent scale that the assay sets.

Each structure is given as a SMILES string.

Holding throughout (format): cell-based
In assay [1] the target is T1, M4 muscarinic receptor (Homo sapiens, UniProt P08173).
T1 construct: expressed in transfected cells; host or cells: CHO (M4-CHO)
T1 sequence (P08173 1-479): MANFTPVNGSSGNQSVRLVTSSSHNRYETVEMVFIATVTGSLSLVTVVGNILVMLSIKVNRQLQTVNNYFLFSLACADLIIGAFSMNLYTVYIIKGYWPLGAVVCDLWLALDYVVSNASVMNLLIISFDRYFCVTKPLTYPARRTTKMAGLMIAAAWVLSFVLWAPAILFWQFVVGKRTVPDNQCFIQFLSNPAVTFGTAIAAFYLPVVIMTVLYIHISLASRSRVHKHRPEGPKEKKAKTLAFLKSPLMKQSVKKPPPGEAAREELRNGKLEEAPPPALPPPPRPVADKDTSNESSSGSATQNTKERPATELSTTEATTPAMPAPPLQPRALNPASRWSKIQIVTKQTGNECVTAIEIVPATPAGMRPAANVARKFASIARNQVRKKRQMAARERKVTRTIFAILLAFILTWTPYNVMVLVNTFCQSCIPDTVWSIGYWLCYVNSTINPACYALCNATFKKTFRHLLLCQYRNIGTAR
Nature of the assay: Functional mobilization of intracellular calcium (FLIPR), M4-CHO cells. The settings on record: for Emax: 100% efficacy = maximum response obtained with the Carbachol control; for M4 Activity: M4-CHO cells, calcium mobilization (FLIPR). In outline: (§1)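 Calcium mobilisation read by FLIPR over 60 s (ex 488/em 540 nm) in recombinant muscarinic CHO lines loaded with calcium dye plus 1 mM probenecid. Compounds tested as agonists alone, or as inhibitors against EC80 carbachol after 15 min pre-incubation or co-addition; 0.5% DMSO; efficacy scaled to carbachol maximal response.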
A general note: Calcium assays in cells follow changes in intracellular calcium, usually with a dye or a luminescent sensor.

For assay [2], the target named is T2, M1 muscarinic receptor (Homo sapiens, UniProt P11229).
T2 construct: expressed in transfected cells; host or cells: CHO (M1-CHO)
T2 sequence (P11229 1-460): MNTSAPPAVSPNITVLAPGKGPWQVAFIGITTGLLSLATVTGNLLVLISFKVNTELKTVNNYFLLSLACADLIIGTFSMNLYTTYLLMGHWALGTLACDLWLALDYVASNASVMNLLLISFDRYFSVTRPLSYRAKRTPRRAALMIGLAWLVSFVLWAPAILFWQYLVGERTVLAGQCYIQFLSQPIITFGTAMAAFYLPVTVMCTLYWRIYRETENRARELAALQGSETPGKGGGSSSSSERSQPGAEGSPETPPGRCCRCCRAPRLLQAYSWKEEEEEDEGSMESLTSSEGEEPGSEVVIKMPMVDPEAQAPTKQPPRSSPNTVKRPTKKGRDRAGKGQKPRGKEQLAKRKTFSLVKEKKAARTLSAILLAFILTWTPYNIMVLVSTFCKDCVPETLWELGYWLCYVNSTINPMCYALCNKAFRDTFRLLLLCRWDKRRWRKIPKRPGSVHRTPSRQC
Nature of the assay: Functional mobilization of intracellular calcium (FLIPR), M1-CHO cells. Conditions: for Emax: 100% efficacy = maximum response obtained with the Carbachol control; for M1 Activity: M1-CHO cells, calcium mobilization (FLIPR). The procedure, abridged:
as §1

Assay [3] concerns the target T3, M3 muscarinic receptor (Homo sapiens, UniProt P20309).
T3 construct: expressed in transfected cells; host or cells: CHO (M3-CHO)
Put plainly: Functional mobilization of intracellular calcium (FLIPR), M3-CHO cells. Conditions: for Emax: 100% efficacy = maximum response obtained with the Carbachol control; for M3 Activity: M3-CHO cells, calcium mobilization (FLIPR). The procedure, abridged:
as §1

Assay [4] has as its target T4, M2 muscarinic receptor (Homo sapiens, UniProt P08172).
T4 construct: expressed in transfected cells; host or cells: CHO (M2-CHO)
T4 sequence (P08172 1-466): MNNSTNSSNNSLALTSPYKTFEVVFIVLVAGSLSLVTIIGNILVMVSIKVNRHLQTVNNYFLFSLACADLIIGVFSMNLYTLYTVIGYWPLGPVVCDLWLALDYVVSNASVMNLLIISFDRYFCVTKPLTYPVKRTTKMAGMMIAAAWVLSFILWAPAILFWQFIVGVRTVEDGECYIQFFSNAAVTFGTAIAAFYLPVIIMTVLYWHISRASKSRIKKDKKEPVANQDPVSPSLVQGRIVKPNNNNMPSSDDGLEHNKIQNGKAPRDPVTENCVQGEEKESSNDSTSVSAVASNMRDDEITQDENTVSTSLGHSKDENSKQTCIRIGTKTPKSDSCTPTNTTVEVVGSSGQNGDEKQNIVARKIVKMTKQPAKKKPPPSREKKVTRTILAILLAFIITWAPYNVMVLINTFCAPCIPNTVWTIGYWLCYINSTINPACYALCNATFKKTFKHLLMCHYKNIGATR
Nature of the assay: Functional mobilization of intracellular calcium (FLIPR), M2-CHO cells. Conditions: for Emax: 100% efficacy = maximum response obtained with the Carbachol control; for M2 Activity: M2-CHO cells, calcium mobilization (FLIPR). The procedure, abridged: as §1

T3 sequence (P20309 whole entry): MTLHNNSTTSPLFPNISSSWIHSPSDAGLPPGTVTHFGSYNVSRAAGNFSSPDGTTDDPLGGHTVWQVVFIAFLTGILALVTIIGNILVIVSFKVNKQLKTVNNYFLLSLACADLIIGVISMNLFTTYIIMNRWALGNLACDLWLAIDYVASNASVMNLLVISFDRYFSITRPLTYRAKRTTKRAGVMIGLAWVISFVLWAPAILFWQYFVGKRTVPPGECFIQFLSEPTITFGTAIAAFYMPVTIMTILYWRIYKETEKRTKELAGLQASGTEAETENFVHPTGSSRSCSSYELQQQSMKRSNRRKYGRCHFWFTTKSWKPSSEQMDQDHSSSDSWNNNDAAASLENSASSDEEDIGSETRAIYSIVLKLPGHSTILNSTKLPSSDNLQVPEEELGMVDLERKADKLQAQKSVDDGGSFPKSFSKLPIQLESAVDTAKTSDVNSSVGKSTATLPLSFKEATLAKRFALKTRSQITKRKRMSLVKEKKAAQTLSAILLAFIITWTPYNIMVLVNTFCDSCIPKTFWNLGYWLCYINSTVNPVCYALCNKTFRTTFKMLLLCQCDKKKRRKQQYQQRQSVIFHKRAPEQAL

As for `Cc1ccccc1C1CCN(C2CCOCC2)CC1` [Compound 281], in assay [1], the Emax was in the range of 25 to 100% and the “M4 Activity” value is recorded as “+++ (activity was measured to be less than 1.0 μM)”. In addition, in assay [2], the Emax lay in the range of 25 to 100% and the “M1 Activity” value was “+ (activity was measured to be greater than 5.0 μM)”. In addition, in assay [3], the maximum response (Emax) is under 25% and the “M3 Activity” value was “+ (activity was measured to be greater than 5.0 μM)”. In addition, in assay [4], the maximal effect (Emax) is under 25% and the “M2 Activity” value was “+ (activity was measured to be greater than 5.0 μM)”.
For the compound `CCC(=O)c1ccc(OC)c(C2CCN([C@H]3C[C@H]4CC[C@H]3C4)CC2)c1` [Compound 282], in assay [1], the Emax fell in the range of 25 to 100% and the “M4 Activity” value is “++ (activity was measured to be from 1.0 μM to 5.0 μM)”. Moreover, in assay [2], the Emax is under 25% and the “M1 Activity” value is listed as “+ (activity was measured to be greater than 5.0 μM)”. Further, in assay [3], the Emax is under 25% and the “M3 Activity” value is on record as “+ (activity was measured to be greater than 5.0 μM)”. In assay [4], the Emax was under 25% and the “M2 Activity” value is given as “+ (activity was measured to be greater than 5.0 μM)”.
`Cc1cccc(-c2ccccc2C2CCN([C@H]3C[C@H]4CC[C@H]3C4)CC2)c1` [Compound 283]: in assay [1], the Emax was 25 to 100% and the “M4 Activity” value is listed as “++ (activity was measured to be from 1.0 μM to 5.0 μM)”. In assay [2], the Emax is under 25% and the “M1 Activity” value is “+ (activity was measured to be greater than 5.0 μM)”. In assay [3], the Emax was under 25% and the “M3 Activity” value was “+ (activity was measured to be greater than 5.0 μM)”. In assay [4], the maximum response (Emax) was under 25% and the “M2 Activity” value is recorded as “+ (activity was measured to be greater than 5.0 μM)”.
For `COc1ccc(-c2ccc3c(c2)OCO3)cc1C1CCN(C2C[C@@H]3CC[C@@H]2C3)CC1` (stereo partly drawn) [Compound 284], in assay [1], the Emax was in the range of 25 to 100% and the “M4 Activity” value is reported as “+ (activity was measured to be greater than 5.0 μM)”. Moreover, in assay [2], the Emax was in the range of 25 to 100% and the “M1 Activity” value is “+ (activity was measured to be greater than 5.0 μM)”. Besides, in assay [3], the maximal effect (Emax) fell in the range of 25 to 100% and the “M3 Activity” value is recorded as “+ (activity was measured to be greater than 5.0 μM)”. Further, in assay [4], the Emax is under 25% and the “M2 Activity” value is given as “+ (activity was measured to be greater than 5.0 μM)”.
As for `CNC(=O)c1ccc(-c2ccc(OC)c(C3CCN(C4CCOCC4)CC3)c2)cc1` [Compound 285], in assay [1], the Emax is under 25% and the “M4 Activity” value was “+ (activity was measured to be greater than 5.0 μM)”. In addition, in assay [2], the Emax was under 25% and the “M1 Activity” value was “+ (activity was measured to be greater than 5.0 μM)”. Also, in assay [3], the Emax was under 25% and the “M3 Activity” value is listed as “+ (activity was measured to be greater than 5.0 μM)”. Besides, in assay [4], the Emax was under 25% and the “M2 Activity” value is “+ (activity was measured to be greater than 5.0 μM)”.
For the compound `COc1ccc(C#CC2(O)CCCC2)cc1C1CCN([C@H]2C[C@H]3CC[C@H]2C3)CC1` [Compound 287], in assay [1], the Emax was 25 to 100% and the “M4 Activity” value is “+++ (activity was measured to be less than 1.0 μM)”. Further, in assay [2], the Emax is under 25% and the “M1 Activity” value is given as “+ (activity was measured to be greater than 5.0 μM)”. Besides, in assay [3], the Emax was under 25% and the “M3 Activity” value is given as “+ (activity was measured to be greater than 5.0 μM)”. For the same compound, in assay [4], the Emax is under 25% and the “M2 Activity” value is listed as “+ (activity was measured to be greater than 5.0 μM)”.
For the compound `CCOC(=O)N1CCC(N2C3CCC2CC(c2ccccc2OC)C3)CC1` (stereo not drawn) [Compound 289, ethyl 4-(3-(2-methoxyphenyl)-8-azabicyclo-[3.2.1]octan-8-yl)piperidine-1-carboxylate], in assay [1], the Emax was in the range of 25 to 100% and the “M4 Activity” value is “++ (activity was measured to be from 1.0 μM to 5.0 μM)”. In assay [2], the Emax is under 25% and the “M1 Activity” value is given as “+ (activity was measured to be greater than 5.0 μM)”. For the same compound, in assay [3], the Emax is under 25% and the “M3 Activity” value is “+ (activity was measured to be greater than 5.0 μM)”. Also, in assay [4], the Emax was under 25% and the “M2 Activity” value is listed as “+ (activity was measured to be greater than 5.0 μM)”.
Take `Cc1ccc(F)c(C2CCN(C3C[C@H]4CC[C@H]3C4)CC2)c1` (stereo partly drawn) [Compound 290]: in assay [1], the Emax is 25 to 100% and the “M4 Activity” value is reported as “++ (activity was measured to be from 1.0 μM to 5.0 μM)”. In assay [2], the Emax is 25 to 100% and the “M1 Activity” value is “++ (activity was measured to be from 1.0 μM to 5.0 μM)”. Also, in assay [3], the Emax was under 25% and the “M3 Activity” value is reported as “+ (activity was measured to be greater than 5.0 μM)”. In assay [4], the Emax was in the range of 25 to 100% and the “M2 Activity” value is “+ (activity was measured to be greater than 5.0 μM)”.
`COc1ccccc1C1CCN(CC2=CC[C@@H]3C[C@@H]2C3(C)C)CC1` [Compound 291]: in assay [1], the Emax is under 25% and the “M4 Activity” value is reported as “+ (activity was measured to be greater than 5.0 μM)”. In assay [2], the Emax was under 25% and the “M1 Activity” value is listed as “+ (activity was measured to be greater than 5.0 μM)”. Further, in assay [3], the Emax is under 25% and the “M3 Activity” value is recorded as “+ (activity was measured to be greater than 5.0 μM)”. Also, in assay [4], the Emax is under 25% and the “M2 Activity” value is listed as “+ (activity was measured to be greater than 5.0 μM)”.
For `COc1ccc(F)cc1C1(OC)CCN(C[C@H]2C[C@H]3C=C[C@H]2C3)CC1` [Compound 292], in assay [1], the Emax was 25 to 100% and the “M4 Activity” value is reported as “+++ (activity was measured to be less than 1.0 μM)”. For the same compound, in assay [2], the Emax lay in the range of 25 to 100% and the “M1 Activity” value is reported as “++ (activity was measured to be from 1.0 μM to 5.0 μM)”. Further, in assay [3], the Emax is under 25% and the “M3 Activity” value is “+ (activity was measured to be greater than 5.0 μM)”. Besides, in assay [4], the Emax lay in the range of 25 to 100% and the “M2 Activity” value is given as “++ (activity was measured to be from 1.0 μM to 5.0 μM)”.
`Fc1ccc(-c2ccccc2C2CCN([C@H]3C[C@H]4CC[C@H]3C4)CC2)cc1` [Compound 294]: in assay [1], the Emax lay within 25 to 100% and the “M4 Activity” value is “++ (activity was measured to be from 1.0 μM to 5.0 μM)”. Besides, in assay [2], the Emax is under 25% and the “M1 Activity” value is given as “+ (activity was measured to be greater than 5.0 μM)”. For the same compound, in assay [3], the Emax was under 25% and the “M3 Activity” value was “+ (activity was measured to be greater than 5.0 μM)”. Also, in assay [4], the Emax was under 25% and the “M2 Activity” value is on record as “+ (activity was measured to be greater than 5.0 μM)”.
On to `CCOC(=O)N1CCC(CN2CCC(OC)(c3cc(F)ccc3OC)CC2)CC1` [Compound 295], for which, in assay [1], the Emax was in the range of 25 to 100% and the “M4 Activity” value is “+++ (activity was measured to be less than 1.0 μM)”. Also, in assay [2], the Emax was 25 to 100% and the “M1 Activity” value is “+++ (activity was measured to be less than 1.0 μM)”. Moreover, in assay [3], the Emax is under 25% and the “M3 Activity” value is listed as “+ (activity was measured to be greater than 5.0 μM)”. Besides, in assay [4], the Emax lay in the range of 25 to 100% and the “M2 Activity” value is listed as “++ (activity was measured to be from 1.0 μM to 5.0 μM)”.
